# “Also recorded” adds a separate entry of the source.
# How the values were obtained:
# [1] = tested on: KB human nasopharyngeal carcinoma cells; assay: Cytotoxicity (antiproliferative effect), crystal violet staining; type: cell-based; conditions: Homo sapiens, KB, 72 h, Table 2; KB cells, 3 days; read-out: KB cells, toxicity TD50
# Description: KB human nasopharyngeal carcinoma cells, were maintained in RPMI 1640 medium supplemented with 10% fetal bovine serum. KB cells were cultured in plastic tissue culture flasks and kept in an incubator at 37° C. in humidified air containing 5% CO2. These cells were free of Mycoplasma as determined with Hoechst 33258 stain.
# The antiproliferative effect of compounds was determined using cell staining method by crystal violet.
# One hundred-μ1 cultures were established at 10^3 cells/well in 96-well tissue culture plates (Nunc, Roskilde, Denmark). After 24 h. 100 µl of the medium containing 2 times concentrated the compounds were added to the cell culture. After an additional 3 days culture, cells were fixed to 20 µl of 25% glutaraldehyde for 15 minutes and washed with water, dried and stained with 0.05% crystal violet in 20% methanol for 15 minutes. After washing with water and drying, crystal violet was extracted with 100 µl of 50 mM NaH2 PO4 /ethanol (1:1 v/v) and OD540 was measured by the multiscanphotometer (Corona, Tokyo, Japan). A linear relationship between cell number and the amount of dye binding was found over the range of cell densities observed all experiments.
# [2] = clinical applications/usage; in words; cited from earlier work
# DNA [3] = assay: Site and sequence selective DNA alkylation by polyacrylamide gel electrophoresis (PAGE); type: biochemical; conditions: for Alkylation Intensity at ATAA*: site ATAA*
# Source text: In contrast to FCE 24517, clear evidence of site and sequence selective DNA alkylation was obtained for the new CPI-oligopeptides by polyacrylamide gel electrophoresis (PAGE). […] Table 5 quantifies and compares the alkylation intensities at different sites for the CPI-oligopeptides with CC-1065. […] A detailed analysis of the frequency of occurrence of bases flanking the prominent alkylation sites for YW-052 and YW-053 compared with CC-1065 is given in Table 7.
# DNA [4] = conditions: in words; cited from earlier work
structure (smiles),measurement,setting,value
"COc1c(O)c2c(c3cc(C(=O)N4CCc5c4c(O)c(OC)c4[nH]c(C(=O)N6CC7CC78C6=CC(=O)c6[nH]cc(C)c68)cc54)[nH]c13)CCN2C(N)=O (stereo not drawn) [CC-1065, reference compound]",IC50,[1],0.001 ng/mL
same,toxicity (delayed death syndrome),[2],too toxic for clinical applications because of the delayed death syndrome; also recorded: too toxic for clinical usage
same,"Frequency of Occurrence, base A at +1","DNA [3]; A, position +1",30%
same,"Frequency of Occurrence, base A at +2","DNA [3]; A, position +2",30%
same,"Frequency of Occurrence, base A at +3","DNA [3]; A, position +3",20%
same,"Frequency of Occurrence, base A at -1","DNA [3]; A, position -1",40%
same,"Frequency of Occurrence, base A at -2","DNA [3]; A, position -2",40%
same,"Frequency of Occurrence, base A at -3","DNA [3]; A, position -3",30%
same,"Frequency of Occurrence, A/T at +1","DNA [3]; A/T, position +1",80%
same,"Frequency of Occurrence, A/T at +2","DNA [3]; A/T, position +2",60%
same,"Frequency of Occurrence, A/T at +3","DNA [3]; A/T, position +3",50%
same,"Frequency of Occurrence, A/T at -1","DNA [3]; A/T, position -1",100%
same,"Frequency of Occurrence, A/T at -2","DNA [3]; A/T, position -2",100%
same,"Frequency of Occurrence, A/T at -3","DNA [3]; A/T, position -3",60%
same,"Frequency of Occurrence, base C at +3","DNA [3]; C, position +3",10%
same,"Frequency of Occurrence, base C at -3","DNA [3]; C, position -3",30%
same,"Frequency of Occurrence, base G at +1","DNA [3]; G, position +1",20%
same,"Frequency of Occurrence, base G at +2","DNA [3]; G, position +2",40%
same,"Frequency of Occurrence, base G at +3","DNA [3]; G, position +3",40%
same,"Frequency of Occurrence, base G at -3","DNA [3]; G, position -3",10%
same,DNA alkylation,"DNA [3]; PAGE, in words",alkylate DNA strongly
same,"Frequency of Occurrence, base T at +1","DNA [3]; T, position +1",50%
same,"Frequency of Occurrence, base T at +2","DNA [3]; T, position +2",30%
same,"Frequency of Occurrence, base T at +3","DNA [3]; T, position +3",30%
same,"Frequency of Occurrence, base T at -1","DNA [3]; T, position -1",60%
same,"Frequency of Occurrence, base T at -2","DNA [3]; T, position -2",60%
same,"Frequency of Occurrence, base T at -3","DNA [3]; T, position -3",30%
same,"Frequency of Occurrence, A* (site of alkylation)",DNA [3]; alkylated base A*,100%
same,"Frequency of Occurrence, G* (site of alkylation)",DNA [3]; alkylated base G*,0%
same,"Alkylation Sites (5'-3'), Moderate",DNA [3]; moderate sites,"TATA, TTAA, GTTA; also recorded: CTTA, GGAA"
same,Alkylation Intensity at AATA*,DNA [3]; site AATA*,1.08
same,Alkylation Intensity at ATAA*,DNA [3]; first column of Table 5,1.47
same,Alkylation Intensity at ATAA*,DNA [3]; third column of Table 5,.96
same,Alkylation Intensity at CTTA,DNA [3]; site CTTA,.61
same,Alkylation Intensity at GAAA,DNA [3]; site GAAA,.35
same,Alkylation Intensity at GATA*,DNA [3]; site GATA*,.80
same,Alkylation Intensity at GTTA,DNA [3]; site GTTA,1.20
same,Alkylation Intensity at TATA,DNA [3]; site TATA,1.02
same,Alkylation Intensity at TTAA*,DNA [3]; site TTAA*,.80
same,Alkylation Intensity at TTTA,DNA [3]; site TTTA,1.09
same,"Alkylation Sites (5'-3'), Strong",DNA [3]; strong sites,"TTTA, GATA, ATAA; also recorded: AATA, ATAA"
same,DNA sequence recognition,DNA [4],strictly AT recognizing; also recorded: strictly limited AATT recognition
